Laboratory results reported in patent US11419852B2, “Beta-lactam compounds or salts thereof for use in long-acting prevention or treatment of a glucose metabolism disorder” (GLYCOLYSIS BIOMED CO., LTD., priority 2019, dated 2022).
Marks after values point to notes of the source that are not given here.

Tests used:
Assay type in all cases: in vivo
[1] = tested on: db/db mice; assay: Plasma biochemical parameters (AST, ALT, BUN, Cr, HbA1c)
Description: Inflammatory markers such as serum aspartate aminotransferase (AST), alanine aminotransferase (ALT), blood urea nitrogen (BUN), creatinine (Cr), and hemoglobin Alc (HbAlc) were measured using a BMC-Hitachi 717 chemistry auto analyzer.

[2] = tested on: db/db mice; assay: Fasting plasma glucose (FPG) measurement; conditions: for Average FPG level: dosing 6 weeks
Description: Four to five weeks old db/db mice (BKS.Cg-Dock7^m+/+Lepr^db/JNarl) and m/m mice (BKS.Cg-Dock7^m+/Dock7^m+) were obtained from National Laboratory Animal Center (Nangang, Taipei, Taiwan). These animals were maintained in a facility with a 12-h dark-light cycle at 24±2° C. and 65±5% humidity and were provided food (No. 5001; PMI Nutrition International, Brentwood, Mo.) and water ad libitum. For experiments, the average body weight of m/m mice was approximately 20 g, and that of db/db mice was approximately 30 g.
For each mouse, blood was sampled from the tail vein and measured for FPG levels using a blood glucose meter (OneTouch UltraEasy, Johnson & Johnson, USA) at a predestined time point.

[3] = Food and water intake of mice
Description: (§1) Four to five weeks old db/db mice (BKS.Cg-Dock7^m+/+Lepr^db/JNarl) and m/m mice (BKS.Cg-Dock7^m+/Dock7^m+) were obtained from National Laboratory Animal Center ([…], Taiwan). […] PMI Nutrition International, Brentwood, Mo.) and water ad libitum. […] The mouse body weight (bw) and the amounts of water and food intake were recorded weekly for the entire study period.

[4] = Body weight of mice recorded weekly; conditions: for Body weight: Ex 2 G3 db/db, 0.3 mg/g bw/day (row printed 0.3 DMH), dosing 6 weeks
Description: as §1

[5] = Ex 1: db/db mice, ertapenem i.p. 0.41 mg/g bw/day, week 3
[6] = Ex 3, after the treatments had been stopped for 6 weeks
[7] = Ex 3: db/db mice, daily dosing 3 weeks at doses of Table 10, week 9
[8] = Ex 1: db/db mice, ertapenem i.p. 0.41 mg/g bw/day, 3 weeks
[9] = Ex 3: db/db mice, daily dosing 3 weeks at doses of Table 10

SMILES: C[C@@H](O)[C@H]1C(=O)N2C(C(=O)O)=C(S[C@@H]3CN[C@H](C(=O)Nc4cccc(C(=O)O)c4)C3)[C@H](C)[C@H]12 [DMH, ertapenem]
- Levels of AST, ALT, BUN, and HbA1c in the diabetes mice ([1]; Ex 1, week 3): significantly reduced
- ALT [1, 5]: 34 ± 6 U/L
- AST [1, 5]: 61 ± 7 U/L
- BUN [1, 5]: 27 ± 2 mg/dL
- Creatinine [1, 5]: 0.57 ± 0.02 mg/dL
- HbA1c [1, 5]: 6.1 ± 0.8 %
- Level of ALT [1, 6]: reduce
- Level of AST [1, 6]: reduce
- Level of HbA1c [1, 6]: reduce
- ALT [1, 7]: 79 ± 8^bc U/L
- AST [1, 7]: 127 ± 13^ad U/L
- BUN [1, 7]: 44 + 2^d mg/dL
- Creatinine [1, 7]: 0.467 ± 0.01^bd mg/dL
- HbA1c [1, 7]: 5.8 ± 0.3^d %
- Duration of blood-glucose-lowering effect after treatment was stopped ([2]; Ex 2, db/db mice): at least 6 weeks
- Lowering blood glucose levels (FPG) in db/db mice ([2]; Ex 2, week 3, 0.1 mg/g bw and 0.4 mg/g bw vs metformin 0.3 mg/g bw): as effective as metformin
- Average FPG level ([2]; Ex 2 G4 db/db, DMH i.p. 0.1 mg/g bw/day, week 0): 139 ± 21^b
- Average FPG level ([2]; Ex 2 G4 db/db, DMH i.p. 0.1 mg/g bw/day, week 3): 134 ± 21^b
- Average FPG level ([2]; Ex 2 G4 db/db, DMH i.p. 0.1 mg/g bw/day, week 6): 219 ± 36^b
- Average FPG level ([2]; Ex 2 G4 db/db, DMH i.p. 0.1 mg/g bw/day, week 9): 217 ± 37^bc
- Average FPG level ([2]; Ex 2 G4 db/db, DMH i.p. 0.1 mg/g bw/day, week 12): 154 ± 30^ab
- Average FPG level ([2]; Ex 2 G4 db/db, DMH i.p. 0.1 mg/g bw/day, week 16): 126 ± 43^ab
- Average FPG level ([2]; Ex 2 G4 db/db, DMH i.p. 0.1 mg/g bw/day, week 18): 263 ± 58^b
- Average FPG level ([2]; Ex 2 G5 db/db, DMH i.p. 0.2 mg/g bw/day, week 0): 142 ± 20^b
- Average FPG level ([2]; Ex 2 G5 db/db, DMH i.p. 0.2 mg/g bw/day, week 3): 158 ± 25^bc
- Average FPG level ([2]; Ex 2 G5 db/db, DMH i.p. 0.2 mg/g bw/day, week 6): 166 ± 21^b
- Average FPG level ([2]; Ex 2 G5 db/db, DMH i.p. 0.2 mg/g bw/day, week 9): 212 ± 30^bc
- Average FPG level ([2]; Ex 2 G5 db/db, DMH i.p. 0.2 mg/g bw/day, week 12): 191 ± 42^bc
- Average FPG level ([2]; Ex 2 G5 db/db, DMH i.p. 0.2 mg/g bw/day, week 16): 154 ± 56^ab
- Average FPG level ([2]; Ex 2 G5 db/db, DMH i.p. 0.2 mg/g bw/day, week 18): 308 ± 51^b
- Average FPG level ([2]; Ex 2 G6 db/db, DMH i.p. 0.4 mg/g bw/day, week 0): 141 ± 23^b
- Average FPG level ([2]; Ex 2 G6 db/db, DMH i.p. 0.4 mg/g bw/day, week 3): 121 ± 23^ab
- Average FPG level ([2]; Ex 2 G6 db/db, DMH i.p. 0.4 mg/g bw/day, week 6): 175 ± 30^b
- Average FPG level ([2]; Ex 2 G6 db/db, DMH i.p. 0.4 mg/g bw/day, week 9): 172 ± 27^b
- Average FPG level ([2]; Ex 2 G6 db/db, DMH i.p. 0.4 mg/g bw/day, week 12): 166 ± 26^ac
- Average FPG level ([2]; Ex 2 G6 db/db, DMH i.p. 0.4 mg/g bw/day, week 16): 108 ± 22^ab
- Average FPG level ([2]; Ex 2 G6 db/db, DMH i.p. 0.4 mg/g bw/day, week 18): 266 ± 35^b
- Food and water intake vs DB group ([3]; Ex 1: db/db mice, 0.41 mg/g bw/day i.p., entire study period, P<0.05): reduced
- Diet intake [3, 8]: 5.0 ± 0.9 g/mice/day
- Water intake [3, 8]: 6.8 ± 1.6 mL/mice/day
- Food intake in db/db mice ([3]; Ex 3, P<0.05): significantly reduced
- Water intake in db/db mice ([3]; Ex 3, P<0.05): significantly reduced
- Diet intake [3, 9]: 5.2 ± 1^b g/mice/day
- Water intake [3, 9]: 8.4 ± 1^c mL/mice/day
- Effect on body weight in db/db mice ([4]; Ex 2, 0.1 mg/g bw and 0.4 mg/g bw): positive effects of body weight lowering
- Body weight ([4]; week 14): 43.94 ± 1.54^b
- Body weight ([4]; week 15): 46.46 ± 1.39^b
- Body weight ([4]; week 16): 47.68 ± 1.32^b
- Body weight ([4]; week 17): 48.31 ± 1.38^b
